According to patent US8680272B2, “3-arylethynyl substituted quinazolinone compounds” (Council of Scientific & Industrial Research, priority 2011, dated 2014):

Columns and labels:
NCI-H23 = test: Anticancer activity, SRB assay, non-small lung cell line NCI-H23; assay type: cell-based; conditions: Homo sapiens, Non-small lung NCl-H23, 48 h continuous drug exposure, read-out: Growth Inhibition GI50
Method: (§1) Some of biological activity studies were carried out at the National Cancer Institute (NCI), Maryland, USA.
(§2) The compounds were evaluated for anticancer activity against sixty human cancer cells derived from nine cancer types (leukemia cell line, non-small-cell lung cell line, colon cell line, CNS cell line, melanoma cell line, ovarian cell line, prostate cell line, renal cell line and breast cancer cell line) as shown in Table 1. For each compound, dose response curves for each cell line were measured at a minimum of five concentrations at 10 fold dilutions. A protocol of 48 h continuous drug exposure was used and a sulforhodamine B (SRB) protein assay was used to estimate cell viability or growth.

NCI-H460 = test: Anticancer activity, SRB assay, non-small lung cell line NCI-H460; assay type: cell-based; conditions: Homo sapiens, Non-small lung NCl-H460, 48 h continuous drug exposure, read-out: Growth Inhibition GI50
Method: as §1, §2

KM12 = test: Anticancer activity, SRB assay, colon cell line KM12; assay type: cell-based; conditions: Homo sapiens, 48 h continuous drug exposure, read-out: Growth Inhibition GI50
Method: as §1, §2

CAKI-1 = test: Anticancer activity, SRB assay, renal cell line CAKI-1; assay type: cell-based; conditions: Homo sapiens; Renal CAKI-1; 48 h continuous drug exposure; read-out: Growth Inhibition GI50
Method: as §1, §2

IGROV1 = test: Anticancer activity, SRB assay, ovarian cell line IGROV1; assay type: cell-based, human; conditions: Homo sapiens, IGROV-1, 48 h continuous drug exposure, —^b means GI50 values not attained at the concentrations used, read-out: Growth Inhibition GI50
Method: as §1, §2

SF-539 = test: Anticancer activity, SRB assay, CNS cell line SF-539; assay type: cell-based, human; conditions: Homo sapiens; CNS SF-539; 48 h continuous drug exposure; —^b means GI50 values not attained at the concentrations used; read-out: Growth Inhibition GI50
Method: as §1, §2

SK-MEL-28 = test: Anticancer activity, SRB assay, melanoma cell line SK-MEL-28; assay type: cell-based, human; conditions: Homo sapiens; Melanoma SK-MEL-28; 48 h continuous drug exposure; —^b means GI50 values not attained at the concentrations used; read-out: Growth Inhibition GI50
Method: as §1, §2

SN12C = test: Anticancer activity, SRB assay, renal cell line SN12C; assay type: cell-based, human; conditions: Homo sapiens, 48 h continuous drug exposure, —^b means GI50 values not attained at the concentrations used, read-out: Growth Inhibition GI50
Method: as §1, §2

[1] = tested on: six leukemia cancer cell lines (CCRF-CEM, HL-60, K-562, MOLT-4, SR and RPMI-8226); test: Anticancer activity, SRB assay, leukemia panel; assay type: cell-based, human
Method: as §1, §2

SF-295 = test: Anticancer activity, SRB assay, CNS cell line SF-295; assay type: cell-based, human; conditions: Homo sapiens; CNS SF-295; 48 h continuous drug exposure; —^b means GI50 values not attained at the concentrations used; read-out: Growth Inhibition GI50
Method: as §1, §2

[2] = tested on: eight renal cancer cell line (786-0, A498, ACHN, CAKI-1, SN12C, TK-10, UO-31 and RXF 393); test: Anticancer activity, SRB assay, renal panel; assay type: cell-based, human; set-up: mean graph midpoint values (MG_MID) of Log10LC50 / mean graph midpoint values (MG_MID) of log10 TGI (Log10TGI50): unit not given here
Method: as §1, §2

OVCAR-5 = test: Anticancer activity, SRB assay, ovarian cell line OVCAR-5; assay type: cell-based, human; conditions: Homo sapiens; Ovarian OVCAR-5; 48 h continuous drug exposure; —^b means GI50 values not attained at the concentrations used; read-out: Growth Inhibition GI50
Method: as §1, §2

COLO 205 = test: Anticancer activity, SRB assay, colon cell line COLO 205; assay type: cell-based; conditions: Homo sapiens; Colon COLO 205; 48 h continuous drug exposure; read-out: Growth Inhibition GI50
Method: as §1, §2

SW-620 = test: Anticancer activity, SRB assay, colon cell line SW-620; assay type: cell-based; conditions: Homo sapiens; Colon SW-620; 48 h continuous drug exposure; read-out: Growth Inhibition GI50
Method: as §1, §2

UACC-62 = test: Anticancer activity, SRB assay, melanoma cell line UACC-62; assay type: cell-based; conditions: Homo sapiens; Melanoma UACC-62; 48 h continuous drug exposure; read-out: Growth Inhibition GI50
Method: as §1, §2

HOP-62 = test: Anticancer activity, SRB assay, non-small lung cell line HOP-62; assay type: cell-based, human; conditions: Homo sapiens; Non-small lung HOP-62; 48 h continuous drug exposure; —^b means GI50 values not attained at the concentrations used; read-out: Growth Inhibition GI50
Method: as §1, §2

HOP-92 = test: Anticancer activity, SRB assay, non-small lung cell line HOP-92; assay type: cell-based, human; conditions: Homo sapiens; Non-small lung HOP-92; 48 h continuous drug exposure; —^b means GI50 values not attained at the concentrations used; read-out: Growth Inhibition GI50
Method: as §1, §2

SK-MEL-2 = test: Anticancer activity, SRB assay, melanoma cell line SK-MEL-2; assay type: cell-based, human; conditions: Homo sapiens; Melanoma SK-MEL-2; 48 h continuous drug exposure; —^b means GI50 values not attained at the concentrations used; read-out: Growth Inhibition GI50
Method: as §1, §2

HCT-116 = test: Anticancer activity, SRB assay, colon cell line HCT-116; assay type: cell-based; conditions: Homo sapiens; Colon HCT-116; 48 h continuous drug exposure; read-out: Growth Inhibition GI50
Method: as §1, §2

A498 = test: Anticancer activity, SRB assay, renal cell line A498; assay type: cell-based, human; conditions: Homo sapiens, 48 h continuous drug exposure, —^b means GI50 values not attained at the concentrations used, read-out: Growth Inhibition GI50
Method: as §1, §2

HL-60(TB) = test: Anticancer activity, SRB assay, leukemia cell line HL-60(TB); assay type: cell-based; conditions: Homo sapiens; Leukemia HL-60(TB); 48 h continuous drug exposure; read-out: Growth Inhibition GI50
Method: as §1, §2

OVCAR-3 = test: Anticancer activity, SRB assay, ovarian cell line OVCAR-3; assay type: cell-based; conditions: Homo sapiens; Ovarian OVCAR-3; 48 h continuous drug exposure; read-out: Growth Inhibition GI50
Method: as §1, §2

[3] = Anticancer activity, SRB assay, melanoma panel; assay type: cell-based, human; conditions: Homo sapiens; nine melanoma cancer cell line; exposure period of at least 48 h; read-out: GI50 (range over the panel)
Method: as §1, §2

[4] = tested on: nine melanoma cancer cell line (LOX IMVI, MALME-3M, M14, MDA-MB-435, SK-MEL-2, SK-MEL-28, SK-MEL-5, UACC-257 and UACC-62); test: Anticancer activity, SRB assay, melanoma panel; assay type: cell-based, human; conditions: Melanoma
Method: as §1, §2

MDA-MB-231/ATCC = test: Anticancer activity, SRB assay, breast cell line MDA-MB-231/ATCC; assay type: cell-based; conditions: Homo sapiens; Breast MDA-MB-231/ATCC; 48 h continuous drug exposure; read-out: Growth Inhibition GI50
Method: as §1, §2

ACHN = test: Anticancer activity, SRB assay, renal cell line ACHN; assay type: cell-based, human; conditions: Homo sapiens, 48 h continuous drug exposure, —^b means GI50 values not attained at the concentrations used, read-out: Growth Inhibition GI50
Method: as §1, §2

For `Cc1cc(C#Cc2ccccc2)ccc1-n1c(/C=C/c2ccc(O)cc2)nc2ccccc2c1=O` [Compound 4b, (E)-2-(4-Hydroxystyryl)-3-(2-methyl-4-(phenylethynyl)phenyl)quinazolin-4(3H)-one], the GI50 (NCI-H23) was 3.62 µM, the GI50 (NCI-H460) was 2220 nM and the GI50 (KM12) was 3.24 µM. For the same compound, the GI50 (CAKI-1) was 3.3 µM, the GI50 (IGROV1) was 20.6 µM and the GI50 (SF-539) was 5.65 µM. It also gave a GI50 (SK-MEL-28) of 4.54 µM, a GI50 (SN12C) of 3.77 µM and a GI50 ([1]; Homo sapiens, six leukemia cancer cell lines, exposure period of at least 48 h, read-out: GI50 (range over the panel)) of 1660 to 3260 nM. The “mean graph midpoint values (MG_MID) of log10 TGI (Log10TGI50)” value (“mean graph midpoint values … (Log10TGI50)” below) ([1]; Leukemia, log value of concentration of the compound resulting in total inhibition of net cell growth) was −4.49, the “mean graph midpoint values (MG_MID) of Log10LC50” value ([1]; Leukemia, log value of the concentration of compounds leading to 50% net cell death) was over −4.00 and the “mean graph midpoint values (MG_MID) of Log10GI50” value ([1]; Leukemia, log values of concentration in mol/L causing 50% inhibition of net cell growth) was −5.64 mol/L. For the same compound, the GI50 (SF-295) was 2850 nM, the GI50 ([2]; Homo sapiens, eight renal cancer cell line, exposure period of at least 48 h, read-out: in vitro anticancer activity (range over the panel)) was 1560 to 3770 nM and the “mean graph midpoint values … (Log10TGI50)” value ([2]; Renal, log value of concentration of the compound resulting in total inhibition of net cell growth) was −4.65. The “mean graph midpoint values (MG_MID) of Log10LC50” value ([2]; Renal, log value of the concentration of compounds leading to 50% net cell death) was over −4.00, the “mean graph midpoint values (MG_MID) of Log10GI50” value ([2]; Renal, log values of concentration in mol/L causing 50% inhibition of net cell growth) was −5.52 mol/L and the GI50 (OVCAR-5) was 4.59 µM. It also gave a GI50 (COLO 205) of 1990 nM, a GI50 (SW-620) of 4.08 µM and a GI50 (UACC-62) of 3.48 µM. For the same compound, the GI50 (HOP-62) was 13.1 µM, the GI50 (HOP-92) was 2500 nM and the GI50 (SK-MEL-2) was 1930 nM. It also gave a GI50 (HCT-116) of 2660 nM, a GI50 (A498) of 1560 nM and a GI50 (HL-60(TB)) of 1660 nM. The GI50 (OVCAR-3) was 3.6 µM, the GI50 [3] was 1.77 to 4.54 µM and the “mean graph midpoint values … (Log10TGI50)” value ([4]; log value of concentration of the compound resulting in total inhibition of net cell growth) was −4.79. The “mean graph midpoint values (MG_MID) of Log10LC50” value ([4]; log value of the concentration of compounds leading to 50% net cell death) was −4.16, the “mean graph midpoint values (MG_MID) of Log10GI50” value ([4]; log values of concentration in mol/L causing 50% inhibition of net cell growth) was −5.54 mol/L and the GI50 (MDA-MB-231/ATCC) was 3.89 µM. For the same compound, the GI50 (ACHN) was 2460 nM.
